Laboratory results taken from PMC5933782, “Molecular structures of cdc2-like kinases in complex with a new inhibitor chemotype” (PLoS ONE, 2018).
Structures can show the parent of a compound that is named as a salt.

Columns and labels:
[1] = molecular target: CDK1/cyclin B; test: radiometric protein kinase assay; assay type: biochemical, starfish; details: for IC50: 15 μmol/L ATP
[2] = molecular target: T1, CDK2/cyclin A (Homo sapiens, UniProt P24941); test: radiometric protein kinase assay; assay type: biochemical; details: for IC50: 15 μmol/L ATP, read-out: IC50 CDK2/cyclinA
T1 construct: made in house

[3] = molecular target: T2, CDK5/p25 (Homo sapiens, UniProt Q00535); test: radiometric protein kinase assay; assay type: biochemical; details: for IC50: 15 μmol/L ATP
T2 construct: made in house

[4] = molecular target: CK1δ/ε; test: radiometric protein kinase assay; assay type: biochemical, porcine; details: for IC50: 15 μmol/L ATP, read-out: IC50 CK1
[5] = molecular target: DYRK1A (Homo sapiens, UniProt Q13627); test: radiometric protein kinase assay; assay type: biochemical; details: for IC50: 15 μmol/L ATP, read-out: IC50 DYRK 1A
[6] = molecular target: DYRK1B (Homo sapiens, UniProt Q9Y463); test: radiometric protein kinase assay; assay type: biochemical; details: for IC50: 15 μmol/L ATP, read-out: IC50 DYRK 1B
[7] = molecular target: T3, DYRK2 (Homo sapiens, UniProt Q92630); test: radiometric protein kinase assay; assay type: biochemical; details: for IC50: 15 μmol/L ATP, read-out: IC50 DYRK 2
T3 sequence (Q92630 1-601): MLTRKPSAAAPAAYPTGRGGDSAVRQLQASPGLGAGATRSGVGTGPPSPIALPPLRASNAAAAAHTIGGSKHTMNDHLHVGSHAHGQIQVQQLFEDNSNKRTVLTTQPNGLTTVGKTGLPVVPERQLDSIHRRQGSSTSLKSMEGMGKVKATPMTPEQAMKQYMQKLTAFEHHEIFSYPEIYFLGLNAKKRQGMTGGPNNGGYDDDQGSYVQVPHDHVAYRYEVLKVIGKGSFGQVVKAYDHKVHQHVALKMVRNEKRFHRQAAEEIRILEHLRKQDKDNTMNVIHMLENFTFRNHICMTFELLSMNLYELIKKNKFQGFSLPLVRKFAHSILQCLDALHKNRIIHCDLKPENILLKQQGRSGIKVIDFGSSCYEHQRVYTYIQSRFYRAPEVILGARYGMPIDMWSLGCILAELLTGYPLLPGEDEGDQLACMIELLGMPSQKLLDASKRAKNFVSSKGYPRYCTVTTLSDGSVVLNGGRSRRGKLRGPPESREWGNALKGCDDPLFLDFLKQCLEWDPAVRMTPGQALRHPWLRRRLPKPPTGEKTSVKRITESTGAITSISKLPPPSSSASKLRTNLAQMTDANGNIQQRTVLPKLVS

[8] = molecular target: T4, DYRK3 (Homo sapiens, UniProt O43781); test: radiometric protein kinase assay; assay type: biochemical; details: for IC50: 15 μmol/L ATP, read-out: IC50 DYRK 3
T4 sequence (O43781 1-588): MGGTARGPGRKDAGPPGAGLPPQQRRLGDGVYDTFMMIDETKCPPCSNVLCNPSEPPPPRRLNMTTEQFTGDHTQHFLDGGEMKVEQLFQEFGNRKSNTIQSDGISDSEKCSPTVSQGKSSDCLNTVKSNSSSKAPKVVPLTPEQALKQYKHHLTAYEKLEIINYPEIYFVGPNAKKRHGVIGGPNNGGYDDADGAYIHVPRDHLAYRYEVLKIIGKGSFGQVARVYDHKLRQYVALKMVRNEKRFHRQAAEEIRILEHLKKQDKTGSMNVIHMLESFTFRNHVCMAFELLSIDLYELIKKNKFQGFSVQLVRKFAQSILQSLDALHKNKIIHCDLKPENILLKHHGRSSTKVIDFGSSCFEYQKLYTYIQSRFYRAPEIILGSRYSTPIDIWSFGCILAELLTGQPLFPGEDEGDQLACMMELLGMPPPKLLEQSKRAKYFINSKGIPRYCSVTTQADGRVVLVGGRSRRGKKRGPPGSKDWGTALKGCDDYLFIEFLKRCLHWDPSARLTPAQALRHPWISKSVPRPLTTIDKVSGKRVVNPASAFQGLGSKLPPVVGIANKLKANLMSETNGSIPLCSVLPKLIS

[9] = molecular target: GSK-3; test: radiometric protein kinase assay; assay type: biochemical, porcine; details: for IC50: 15 μmol/L ATP, read-out: IC50 GSK3
[10] = molecular target: CDK9/cyclin T (Homo sapiens, UniProt P50750); test: radiometric protein kinase assay
[11] = molecular target: CLK1 (Mus musculus, UniProt P22518); test: radiometric protein kinase assay
[12] = molecular target: CLK2 (Mus musculus, UniProt O35491); test: radiometric protein kinase assay
[13] = molecular target: CLK3 (Mus musculus, UniProt O35492); test: radiometric protein kinase assay
Method: Buffers. Buffer A: 10 mM MgCl2, 1 mM EGTA, 1 mM DTT, 25 mM Tris-HCl pH 7.5, 50 μg heparin/mL. Buffer C: 60 mM β-glycerophosphate, 15 mM p-nitrophenylphosphate, 25 mM MOPS (pH 7.2), 15 mM EGTA, 15 mM MgCl2, 1 mM DTT, 1 mM sodium vanadate, 1 mM phenylphosphate.
Kinase activities were assayed in buffer A or C at 30°C at a final ATP concentration of 15 μmol/L. Blank values were subtracted and activities were expressed in percent of the maximal activity, i.e. in the absence of inhibitors. Controls were performed with appropriate dilutions of DMSO.
Their kinase activity was assayed in buffer A, with 1 mg histone H1/mL, in the presence of 15 μmol/L [γ-33P] ATP (3,000 Ci/mmol; 10 mCi/mL) in a final volume of 30 μL. After 30 min incubation at 30°C, the reaction was stopped by harvesting onto P81 phosphocellulose supernatant (Whatman) using a FilterMate harvester (Packard) and washing in 1% phosphoric acid. Scintillation fluid was added and the radioactivity measured in a Packard counter.
All data points for construction of dose response curves were recorded in triplicate.

[14] = molecular target: CLK4 (Mus musculus, UniProt O35493); test: radiometric protein kinase assay
Sequence of CLK4 (O35493 whole entry): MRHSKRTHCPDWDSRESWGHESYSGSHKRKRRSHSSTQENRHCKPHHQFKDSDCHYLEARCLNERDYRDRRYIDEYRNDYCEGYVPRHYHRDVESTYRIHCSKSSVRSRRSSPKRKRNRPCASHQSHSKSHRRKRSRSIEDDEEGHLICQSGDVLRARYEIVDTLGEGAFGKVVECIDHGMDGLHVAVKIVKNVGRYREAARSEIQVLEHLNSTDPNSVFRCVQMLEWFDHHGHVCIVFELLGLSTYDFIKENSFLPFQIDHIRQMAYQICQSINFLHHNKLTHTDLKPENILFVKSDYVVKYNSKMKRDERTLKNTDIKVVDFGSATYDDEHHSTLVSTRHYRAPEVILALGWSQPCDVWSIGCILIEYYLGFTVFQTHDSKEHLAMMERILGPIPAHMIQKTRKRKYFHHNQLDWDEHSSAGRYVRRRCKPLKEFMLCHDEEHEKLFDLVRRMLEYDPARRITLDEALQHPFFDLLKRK

Sequence of CLK1 (P22518 whole entry): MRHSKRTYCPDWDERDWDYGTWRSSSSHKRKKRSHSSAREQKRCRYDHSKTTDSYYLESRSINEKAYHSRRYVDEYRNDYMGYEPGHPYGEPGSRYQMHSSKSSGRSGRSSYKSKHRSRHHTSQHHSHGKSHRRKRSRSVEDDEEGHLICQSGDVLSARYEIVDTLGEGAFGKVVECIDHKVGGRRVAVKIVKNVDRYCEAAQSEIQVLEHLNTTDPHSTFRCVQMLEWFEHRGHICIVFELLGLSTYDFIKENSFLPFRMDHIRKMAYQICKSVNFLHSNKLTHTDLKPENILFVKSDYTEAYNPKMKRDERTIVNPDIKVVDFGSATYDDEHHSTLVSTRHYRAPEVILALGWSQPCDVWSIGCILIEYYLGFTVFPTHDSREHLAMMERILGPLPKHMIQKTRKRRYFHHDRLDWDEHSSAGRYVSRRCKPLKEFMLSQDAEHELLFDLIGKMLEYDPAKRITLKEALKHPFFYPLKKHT
Sequence of CDK9/cyclin T (P50750 whole entry): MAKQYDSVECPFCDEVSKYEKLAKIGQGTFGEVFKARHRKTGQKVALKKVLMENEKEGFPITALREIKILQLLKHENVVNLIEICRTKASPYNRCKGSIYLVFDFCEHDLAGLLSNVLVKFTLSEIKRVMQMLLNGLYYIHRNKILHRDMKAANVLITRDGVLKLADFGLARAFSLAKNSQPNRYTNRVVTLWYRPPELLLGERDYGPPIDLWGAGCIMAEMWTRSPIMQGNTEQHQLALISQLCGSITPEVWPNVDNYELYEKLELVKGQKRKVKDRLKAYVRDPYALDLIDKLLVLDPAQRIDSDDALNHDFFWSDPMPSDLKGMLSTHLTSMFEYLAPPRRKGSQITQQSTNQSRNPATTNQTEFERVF
Sequence of CDK9/cyclin T (O60563 whole entry partner): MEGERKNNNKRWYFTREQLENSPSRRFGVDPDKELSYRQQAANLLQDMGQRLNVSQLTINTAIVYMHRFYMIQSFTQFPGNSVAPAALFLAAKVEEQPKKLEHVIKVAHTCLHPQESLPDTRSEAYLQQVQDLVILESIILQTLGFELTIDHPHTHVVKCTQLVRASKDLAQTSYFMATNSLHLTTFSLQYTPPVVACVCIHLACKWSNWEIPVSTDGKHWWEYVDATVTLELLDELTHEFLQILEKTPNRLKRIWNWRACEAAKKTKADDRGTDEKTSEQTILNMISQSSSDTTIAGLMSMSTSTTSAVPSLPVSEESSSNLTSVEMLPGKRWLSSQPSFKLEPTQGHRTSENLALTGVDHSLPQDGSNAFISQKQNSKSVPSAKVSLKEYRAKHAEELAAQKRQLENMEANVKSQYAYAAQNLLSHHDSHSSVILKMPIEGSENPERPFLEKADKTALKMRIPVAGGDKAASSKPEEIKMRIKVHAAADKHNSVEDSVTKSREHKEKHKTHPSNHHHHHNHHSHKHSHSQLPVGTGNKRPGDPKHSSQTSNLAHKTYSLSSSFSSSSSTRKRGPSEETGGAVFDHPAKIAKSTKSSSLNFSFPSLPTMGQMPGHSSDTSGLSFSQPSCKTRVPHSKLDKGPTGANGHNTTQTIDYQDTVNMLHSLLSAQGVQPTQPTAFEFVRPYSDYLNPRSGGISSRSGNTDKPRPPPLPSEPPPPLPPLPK
Sequence of DYRK1B (Q9Y463 whole entry): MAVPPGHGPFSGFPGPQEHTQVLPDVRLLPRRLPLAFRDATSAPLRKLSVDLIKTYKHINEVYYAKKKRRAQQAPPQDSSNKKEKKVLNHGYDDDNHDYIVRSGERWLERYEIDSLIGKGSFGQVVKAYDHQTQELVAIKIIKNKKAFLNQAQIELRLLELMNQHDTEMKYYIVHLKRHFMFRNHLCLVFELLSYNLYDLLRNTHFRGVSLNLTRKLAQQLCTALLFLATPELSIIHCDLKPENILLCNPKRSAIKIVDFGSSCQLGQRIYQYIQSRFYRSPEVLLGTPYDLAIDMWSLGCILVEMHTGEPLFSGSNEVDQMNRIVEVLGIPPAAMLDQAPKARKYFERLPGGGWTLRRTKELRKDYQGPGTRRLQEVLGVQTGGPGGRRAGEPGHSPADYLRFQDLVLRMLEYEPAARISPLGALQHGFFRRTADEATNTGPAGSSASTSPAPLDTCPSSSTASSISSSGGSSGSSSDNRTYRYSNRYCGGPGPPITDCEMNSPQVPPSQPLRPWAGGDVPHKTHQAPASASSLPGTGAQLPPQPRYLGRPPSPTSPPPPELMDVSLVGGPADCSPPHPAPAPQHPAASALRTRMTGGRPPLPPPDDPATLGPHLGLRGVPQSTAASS
Sequence of CLK2 (O35491 whole entry): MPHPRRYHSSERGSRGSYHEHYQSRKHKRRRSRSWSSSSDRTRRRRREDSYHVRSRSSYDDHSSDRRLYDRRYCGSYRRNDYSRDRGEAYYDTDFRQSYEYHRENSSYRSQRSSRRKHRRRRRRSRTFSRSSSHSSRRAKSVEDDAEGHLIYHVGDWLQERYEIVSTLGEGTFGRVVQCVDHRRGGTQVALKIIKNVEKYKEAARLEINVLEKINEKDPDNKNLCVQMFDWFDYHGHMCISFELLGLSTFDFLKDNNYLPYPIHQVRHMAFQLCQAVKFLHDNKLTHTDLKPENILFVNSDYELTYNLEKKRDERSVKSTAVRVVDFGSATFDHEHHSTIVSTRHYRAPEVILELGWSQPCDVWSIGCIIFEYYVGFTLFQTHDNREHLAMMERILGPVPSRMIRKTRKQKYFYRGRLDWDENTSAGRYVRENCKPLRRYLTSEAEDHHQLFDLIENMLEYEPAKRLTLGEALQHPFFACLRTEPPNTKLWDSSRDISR
Sequence of CLK3 (O35492 whole entry): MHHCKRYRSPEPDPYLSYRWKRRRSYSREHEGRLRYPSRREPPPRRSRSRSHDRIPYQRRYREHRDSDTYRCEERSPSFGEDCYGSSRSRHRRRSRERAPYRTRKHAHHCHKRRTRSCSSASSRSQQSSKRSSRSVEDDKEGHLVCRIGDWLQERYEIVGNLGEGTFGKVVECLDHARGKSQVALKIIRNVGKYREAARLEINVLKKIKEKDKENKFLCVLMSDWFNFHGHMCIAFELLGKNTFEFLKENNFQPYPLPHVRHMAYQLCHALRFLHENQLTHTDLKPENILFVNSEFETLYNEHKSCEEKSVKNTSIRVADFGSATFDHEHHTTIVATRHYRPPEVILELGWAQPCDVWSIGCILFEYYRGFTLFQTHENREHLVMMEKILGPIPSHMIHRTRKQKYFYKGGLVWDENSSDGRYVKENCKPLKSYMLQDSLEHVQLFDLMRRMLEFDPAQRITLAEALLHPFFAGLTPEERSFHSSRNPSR
T2 sequence (Q00535 whole entry): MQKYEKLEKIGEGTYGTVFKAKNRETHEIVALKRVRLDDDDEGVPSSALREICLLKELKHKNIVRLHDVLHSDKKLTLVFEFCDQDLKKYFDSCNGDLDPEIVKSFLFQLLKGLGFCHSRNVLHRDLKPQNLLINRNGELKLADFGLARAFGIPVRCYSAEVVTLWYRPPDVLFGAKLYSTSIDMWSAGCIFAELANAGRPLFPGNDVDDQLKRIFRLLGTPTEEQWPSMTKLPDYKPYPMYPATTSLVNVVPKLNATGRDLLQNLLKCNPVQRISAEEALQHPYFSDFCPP
T2 sequence (Q15078 99-307 partner limits assumed): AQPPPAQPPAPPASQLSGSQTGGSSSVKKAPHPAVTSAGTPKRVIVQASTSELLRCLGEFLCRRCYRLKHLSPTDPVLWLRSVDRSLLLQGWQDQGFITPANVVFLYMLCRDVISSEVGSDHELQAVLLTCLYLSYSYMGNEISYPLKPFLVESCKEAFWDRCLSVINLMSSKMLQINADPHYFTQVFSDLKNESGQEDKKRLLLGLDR

| SMILES | melting point | IC50 [1] [µM] | IC50 [2] [µM] | IC50 [3] [µM] | IC50 [4] [µM] | IC50 [5] [µM] | IC50 [6] [µM] | IC50 [8] [µM] | IC50 [9] [µM] | IC50 [10] [µM] | IC50 [11] [µM] | IC50 [12] [µM] | IC50 [13] [µM] | IC50 [14] [µM] | further results |
| --- | --- | --- | --- | --- | --- | --- | --- | --- | --- | --- | --- | --- | --- | --- | --- |
| O=C1NCc2ccc3c(-c4ccc(Cl)cc4)c[nH]c3c21 (as salt: sodium) [8d, 3-(4-Chlorophenyl)-6,7-dihydropyrrolo[3,4-g]indol-8(1H)-one] | 255 to 257 °C |  |  |  |  |  |  |  |  |  |  |  |  |  |  |
| O=C1NCc2c(Br)cc3c(-c4ccccc4)c[nH]c3c21 (as salt: sodium) [12a, 5-Bromo-3-phenyl-6,7-dihydropyrrolo[3,4-g]indol-8(1H)-one] | 226 to 227 °C |  |  |  |  |  |  |  |  |  |  |  |  |  |  |
| O=C1NCc2ccc3c(-c4cccc([N+](=O)[O-])c4)c[nH]c3c21 [8j, 3-(3-Nitrophenyl)-6,7-dihydropyrrolo[3,4-g]indol-8(1H)-one] | 237 to 238 °C (dec.) | > 10 | > 10 | > 10 | > 10 | > 10 | 1.5 | 1.9 | > 10 | > 10 | 0.038 | 0.37 | 8.5 | 0.061 | IC50 [7]: 4.9 µM |
| CCn1cc(-c2ccccc2)c2ccc3c(c21)C(=O)NC3 [15b, 1-Ethyl-3-phenyl-6,7-dihydropyrrolo[3,4-g]indol-8(1H)-one] | 198 to 200 °C | > 10 | > 10 | > 10 | > 10 | 3.9 |  |  | > 10 | > 10 | 0.38 |  |  |  |  |
| CCOC(=O)Cn1cc(-c2ccccc2)c2ccc3c(c21)C(=O)NC3 [15d, Ethyl 2-(8-oxo-3-phenyl-7,8-dihydropyrrolo[3,4-g]indol-1(6H)-yl)acetate] | 226 to 227 °C | > 10 | > 10 | > 10 | > 10 | > 10 |  |  | > 10 | > 10 | > 10 |  |  |  |  |
| O=C1NCc2ccc3c(-c4ccccc4)c[nH]c3c21 (as salt: sodium) [8a, 3-Phenyl-6,7-dihydropyrrolo[3,4-g]indol-8(1H)-one] | 294 to 295 °C |  |  |  |  |  |  |  |  |  |  |  |  |  |  |
| O=C1NCc2ccc3c(-c4ccccc4Cl)c[nH]c3c21 [8b, 3-(2-Chlorophenyl)-6,7-dihydropyrrolo[3,4-g]indol-8(1H)-one] | 234 to 235 °C | > 10 | > 10 | > 10 | > 10 | 1.1 |  |  | > 10 | > 10 | 0.14 |  |  |  |  |
| Cc1cccc(-c2c[nH]c3c4c(ccc23)CNC4=O)c1 (as salt: sodium) [8i, 3-(3-Methylphenyl)-6,7-dihydropyrrolo[3,4-g]indol-8(1H)-one] | 231 to 232 °C |  |  |  |  |  |  |  |  |  |  |  |  |  |  |
| COc1cccc(-c2c[nH]c3c4c(ccc23)CNC4=O)c1 [8f, 3-(3-Methoxyphenyl)-6,7-dihydropyrrolo[3,4-g]indol-8(1H)-one] | 207 to 208 °C | > 10 | > 10 | > 10 | > 10 | 3.8 | 1.9 | 5.4 | > 10 | > 10 | 0.11 | 0.32 | 2.8 | 0.11 | IC50 [7]: 2.1 µM |
| Cn1cc(-c2ccccc2)c2ccc3c(c21)C(=O)NC3 [15a, 1-Methyl-3-phenyl-6,7-dihydropyrrolo[3,4-g]indol-8(1H)-one] | 255 to 256 °C | > 10 | > 10 | > 10 | > 10 | > 10 | > 10 | > 10 | > 10 | > 10 | 0.19 | 1.1 | > 10 | 0.16 | IC50 [7]: > 10 µM |
| O=C1NCc2ccc3c(-c4ccc(Cl)c(Cl)c4)c[nH]c3c21 (as salt: sodium) [8e, 3-(3,4-Dichlorophenyl)-6,7-dihydropyrrolo[3,4-g]indol-8(1H)-one] | 258 to 259 °C |  |  |  |  |  |  |  |  |  |  |  |  |  |  |
| CCc1[nH]c2c3c(ccc2c1-c1ccccc1)CNC3=O (as salt: sodium) [8l, 2-Ethyl-3-phenyl-6,7-dihydropyrrolo[3,4-g]indol-8(1H)-one] | 165 to 170 °C |  |  |  |  |  |  |  |  |  |  |  |  |  |  |
| Cc1[nH]c2c3c(ccc2c1-c1ccccc1)CNC3=O (as salt: sodium) [8k, 2-Methyl-3-phenyl-6,7-dihydropyrrolo[3,4-g]indol-8(1H)-one] | 245 to 247 °C |  |  |  |  |  |  |  |  |  |  |  |  |  |  |
| O=C1NCc2ccc3c(-c4ccccc4)c[nH]c3c21 [8a, 3-Phenyl-6,7-dihydropyrrolo[3,4-g]indol-8(1H)-one] |  | > 10 | > 10 | > 10 | > 10 | > 10 | 4.8 | > 10 | > 10 | > 10 | 0.046 | 0.21 | > 10 | 0.12 | Residual enzyme activity CDK1/cyclin B ([1]; 10 µM concentration, ± SEM): 71±21%; remaining activity at 10 µM ([2]; 10 µM concentration, ± SEM, read-out: Residual enzyme activity CDK2/cyclin A): 101 ± 6%; remaining activity at 10 µM ([3]; 10 µM concentration, ± SEM, read-out: Residual enzyme activity CDK5/p25): 107 ± 20%; Residual enzyme activity CK1 ([4]; 10 µM concentration, ± SEM): 91±4%; remaining activity at 10 µM ([5]; 10 µM concentration, ± SEM, read-out: Residual enzyme activity DYRK 1A): 61 ± 12%; remaining activity at 10 µM ([6]; 10 µM concentration, ± SEM, read-out: Residual enzyme activity DYRK 1B): 51 ± 9%; remaining activity at 10 µM ([7]; 10 µM concentration, ± SEM, read-out: Residual enzyme activity DYRK 2): 69 ± 15%; remaining activity at 10 µM ([8]; 10 µM concentration, ± SEM, read-out: Residual enzyme activity DYRK 3): 102 ± 13%; Residual enzyme activity GSK3 ([9]; 10 µM concentration, ± SEM): 111±19%; remaining activity at 10 µM ([10]; read-out: Residual enzyme activity CDK9/cyclin T): 85 ± 5%; remaining activity at 10 µM ([11]; read-out: Residual enzyme activity CLK 1): 8 ± 2%; remaining activity at 10 µM ([12]; read-out: Residual enzyme activity CLK 2): 14 ± 3%; remaining activity at 10 µM ([13]; read-out: Residual enzyme activity CLK 3): 78 ± 9%; remaining activity at 10 µM ([14]; read-out: Residual enzyme activity CLK 4): 2% |
| CN1Cc2ccc3c(-c4ccccc4)cn(C)c3c2C1=O [15e, 1,7-Dimethyl-3-phenyl-6,7-dihydropyrrolo[3,4-g]indol-8(1H)-one] |  | > 10 | > 10 | > 10 | > 10 | > 10 | > 10 | > 10 | > 10 | > 10 | > 10 | > 10 | > 10 | > 10 | IC50 [7]: > 10 µM |
| O=C1NCc2c(-c3cccc(F)c3)cc3c(-c4ccccc4)c[nH]c3c21 [17c, 5-(3-Fluorophenyl)-3-phenyl-6,7-dihydropyrrolo[3,4-g]indol-8(1H)-one] |  | > 10 | > 10 | > 10 | > 10 | > 10 | > 10 | > 10 | > 10 | > 10 | 7.2 | > 10 | > 10 | 3.2 | IC50 [7]: > 10 µM |
| CN1Cc2ccc3c(-c4ccccc4)c[nH]c3c2C1=O (as salt: sodium) [12d, 7-Methyl-3-phenyl-6,7-dihydropyrrolo[3,4-g]indol-8(1H)-one] | 265 to 267 °C |  |  |  |  |  |  |  |  |  |  |  |  |  |  |
